Measured values reported in US10213422B2, “Compositions and methods of inhibiting histone deacetylases” (YALE UNIVERSITY, priority 2014, dated 2019).

How the values were obtained:
[1] = system: MEF2; details: PAH PAECs, apelin 1 μM for 24 h
Protocol: Either control PAECs or PAH PAECs were transfected and lysed in lysis buffer (Promega). Renilla luciferase was used for normalization. Dual Luciferase Reporter System (Promega) was used according to the manufacturer's protocol. All experiments were performed three times in triplicates.

[2] = system: HDAC5-GFP; details: PAH PAECs, apelin 1 μM for 1 h
Protocol: (§1) For the apelin effect on HDAC4/5 translocation, PAECs plated on glass bottom culture dish (Mat-Tek) were transfected with GFP-tagged HDAC4 and HDAC5 expression vectors for 24 hours. Cells were imaged using a Nikon Eclipse Ti confocal microscopy before and after treatment with apelin 13 (1 μM for 1 h at 37° C.).

[3] = system: HDAC4-GFP; details: PAH PAECs, apelin 1 μM for 1 h
Protocol: as §1

[4] = system: HDAC5; details: PAH PAECs, apelin 1 μM for 1 h
Protocol: (§2) Western blotting was performed as previously described (eriosclerosis, thrombosis, and vascular biology 31, 814-820 (2011)). Each western blot is representative of three independent experiments done in triplicate. For the generation of cell lysates, lysis buffer (RIPA, Thermo Scientific) containing a protease and phosphatase inhibitor cocktail (Halt Protease and Phosphatase Inhibitor, Thermo Scientific) was used. Protein contents were measured using a detergent-compatible protein concentration assay (DC™ assay, Bio-Rad).

[5] = system: HDAC4; details: PAH PAECs, apelin 1 μM for 1 h
Protocol: as §2

[6] = system: rats with experimental pulmonary hypertension; assay: Experimental pulmonary hypertension models in rats (MCT and SU-5416/hypoxia): hemodynamic, morphometric and cardiac analyses; assay type: in vivo, rat; details: for right ventricular hypertrophy (right ventricle to left ventricle plus septum weight ratios): SU5416/hypoxia, vs. control; for right ventricular systolic pressures: SU-5416/hypoxia, vs. DMSO
Protocol: Rat lung tissues were fixed and stained as previously described (Nature medicine 19, 74-82 (2013)). Standard methods (Trichrome Stain, Sigma) were used to stain for collagen in cardiac sections.
(§3) Male Sprague Dawley rats (200-250 g; Charles River Laboratories) were subcutaneously injected with monocrotaline (Sigma) (60 mg per kg body weight) for the MCT model. For the SUGEN model, SU-5416 (Sigma) was resuspended in DMSO (Sigma) and injected subcutaneously (20 mg per kg body weight). Rats were subsequently exposed to hypoxia (10% FiO2) for 2 weeks. Rats were given intraperitoneal administration of either the vehicle (DMSO), MC1568 (Sellek Chemicals and DC Chemicals) (50 mg per kg body weight), TMP269 (DC Chemicals) (intraperitoneal injection of 50 mg/kg/day for two weeks), or Tasquinimod (DC Chemicals) (oral gavage of 10 mg/kg/day for two weeks) daily as indicated (FIG. 13).
Right ventricular systolic pressure (RVSP) measurements were performed at the designated time points under isoflurane by inserting a catheter (Millar Instruments) into the right jugular vein as described previously.^21 Lungs were perfused with normal saline and fixed in 4% paraformaldehyde overnight for immunohistochemistry or snap frozen in liquid nitrogen for protein and RNA analyses. Hearts were dissected and weighed for calculation of the right ventricle to the left ventricle plus septum weight ratio. The same full section in the midportion of the left lung parallel to the hilum was used and embedded in the same manner for lung morphometric analyses. Pulmonary artery muscularization was assessed at ×200 magnification after staining for vWF and SMA by calculating the ratio of the number of muscularized peripheral pulmonary arteries to the number of total peripheral pulmonary arteries (with diameters less than 75 μm) in five random fields per lung (with each field at ×200 magnification). The total number of vessels less than 75 μm was expressed as the number of vessels counted per random microscope field (five random fields per lung at ×200 magnification). Pulmonary arteries with proliferating cells were assessed in PCNA stained lung sections. Vessels with one or more PCNA staining cell were considered to be PNCA positive. All measurements were carried out by investigators blinded to the experimental condition.

[7] = system: MEF2 transcriptional targets (Cx37, Cx40, KLF2); assay: MEF2 target expression in PAH PAECs (RT-PCR); assay type: cell-based, human; details: 1 μM for 24 h, vs. control/DMSO
Protocol: (§4) PAECs were isolated from normal and PAH explanted donor lungs, as described previously. Additional control PAECs were obtained from Lonza. PAECs from eleven control subjects, seven subjects with IPAH and three subjects with FPAH were studied. In brief, human pulmonary arteries were dissected from the lungs to the distal small arterioles, and PAECs were harvested from the isolated pulmonary arterial tree. PAECs were grown in EBM-2 basal medium supplemented with EGM-2 (Lonza) on fibronectin-coated plates. Cells were passaged at 70-80% confluency, and primary cultures of passages 3 to 7 were used in experiments. All apelin stimulations were done using apelin-13 peptide at 1 μM (Sigma). TSA (Sigma), MC1568 (Selleck Chemicals and DC Chemicals), TMP269 (DC Chemicals), and Tasquinimod (DC Chemicals) were dissolved in DMSO (Sigma) and used at the indicated doses. Total RNA was extracted with an RNA isolation kit, (miRNeasy RNA, Qiagen). Purified RNA was reverse transcribed with a cDNA synthesis kit (iScript cDNA Synthesis Kit, Bio-Rad). RT-PCR was performed with TaqMan probes for both genes and miRNAs (Applied Biosystems). All miRNA data were normalized to the internal control small RNAs RNU19 and HY3 for human samples and U87 for rat samples. For the mRNA samples, ribosomal 18S was used as an internal control. […]

[8] = system: PAH PAECs; assay: PAH PAEC migration assay; assay type: cell-based, human; details: 1 μM
Protocol: PAECs were grown to post-confluence in 24-well plates, and then subjected to injury using a plastic pipette tip. They were then treated with vehicle or MC1568 (1 μM). The cells were allowed to migrate for 8 h, and the gap distance was calculated in at least five randomly selected microscopic fields per each sample.

[9] = target: T1, HDAC4 (Homo sapiens, UniProt P56524); assay: HDAC4 degradation in PAECs from a PAH patient (western blot); assay type: cell-based; details: 1 μM for 24 hr
T1 construct: phosphorylation of endogenously expressed HDAC4 and HDAC5; endogenous in cells; host or cells: PAECs from PAH patient(s)

[10] = target: T2, HDAC5 (Homo sapiens, UniProt Q9UQL6); assay: HDAC5 degradation in PAECs from a PAH patient (western blot); assay type: cell-based; details: 1 μM for 24 hr
T2 construct: phosphorylation of endogenously expressed HDAC4 and HDAC5; endogenous in cells; host or cells: PAECs from PAH patient(s)

[11] = system: class IIa HDACs; details: cited from earlier work
[12] = system: FGF2; assay: FGF2 expression in PAH PAECs; assay type: cell-based, human; details: 1 μM for 24 h
Protocol: as §4

[13] = system: PAH PAECs; assay: PAH PAEC proliferation assay; assay type: cell-based, human; details: PAH PAECs vs. DMSO
Protocol: PAECs (5×10^3 cells per well) were plated in a 96-well plate and treated with DMSO or MC1568. Cell proliferation was measured by a colorimetric kit for determining cell viability (CellTiter 96 AQueous One Solution Cell Proliferation Assay, Promega) per manufacturer's protocol.

[14] = system: MEF2 transcriptional targets (Cx37, Cx40 and KLF2); assay: MEF2 transcriptional target expression in PH model rats; assay type: in vivo, rat; details: PH models, MC1568 50 mg per kg intraperitoneal daily, vs. DMSO
Protocol: Total RNA was extracted with an RNA isolation kit, (miRNeasy RNA, Qiagen). Purified RNA was reverse transcribed with a cDNA synthesis kit (iScript cDNA Synthesis Kit, Bio-Rad). RT-PCR was performed with TaqMan probes for both genes and miRNAs (Applied Biosystems). All miRNA data were normalized to the internal control small RNAs RNU19 and HY3 for human samples and U87 for rat samples. For the mRNA samples, ribosomal 18S was used as an internal control. Individual RT-PCRs were performed on a CFX96 (Bio-Rad) according to the manufacturer's instructions. […]
Right ventricular systolic pressure (RVSP) measurements were performed at the designated time points under isoflurane by inserting a catheter (Millar Instruments) into the right jugular vein as described previously.^21 Lungs were perfused with normal saline and fixed in 4% paraformaldehyde overnight for immunohistochemistry or snap frozen in liquid nitrogen for protein and RNA analyses. […] Pulmonary artery muscularization was assessed at ×200 magnification after staining for vWF and SMA by calculating the ratio of the number of muscularized peripheral pulmonary arteries to the number of total peripheral pulmonary arteries (with diameters less than 75 μm) in five random fields per lung (with each field at ×200 magnification). […] Pulmonary arteries with proliferating cells were assessed in PCNA stained lung sections. […]

[15] = system: FGF2; assay: FGF2 expression in lungs of PH model rats; assay type: in vivo, rat; details: two PH models, lung homogenates, MC1568 50 mg per kg intraperitoneal daily
Protocol: as §3
Right ventricular systolic pressure (RVSP) measurements were performed at the designated time points under isoflurane by inserting a catheter (Millar Instruments) into the right jugular vein as described previously.^21 Lungs were perfused with normal saline and fixed in 4% paraformaldehyde overnight for immunohistochemistry or snap frozen in liquid nitrogen for protein and RNA analyses. […] The total number of vessels less than 75 μm was expressed as the number of vessels counted per random microscope field (five random fields per lung at ×200 magnification). Pulmonary arteries with proliferating cells were assessed in PCNA stained lung sections. […]

[16] = system: human coronary artery endothelial cells; assay: Caspase 3 cleavage in human coronary artery endothelial cells; assay type: cell-based
[17] = pulmonary artery banding, previous study; cited from earlier work
[18] = Tasquinimod oral gavage 10 mg/kg/day for two weeks
[19] = TMP269 intraperitoneal 50 mg/kg/day for two weeks
[20] = MCT and SUGEN models, MC1568 50 mg per kg intraperitoneal daily, vs. vehicle (DMSO)

T1 sequence (P56524 whole entry): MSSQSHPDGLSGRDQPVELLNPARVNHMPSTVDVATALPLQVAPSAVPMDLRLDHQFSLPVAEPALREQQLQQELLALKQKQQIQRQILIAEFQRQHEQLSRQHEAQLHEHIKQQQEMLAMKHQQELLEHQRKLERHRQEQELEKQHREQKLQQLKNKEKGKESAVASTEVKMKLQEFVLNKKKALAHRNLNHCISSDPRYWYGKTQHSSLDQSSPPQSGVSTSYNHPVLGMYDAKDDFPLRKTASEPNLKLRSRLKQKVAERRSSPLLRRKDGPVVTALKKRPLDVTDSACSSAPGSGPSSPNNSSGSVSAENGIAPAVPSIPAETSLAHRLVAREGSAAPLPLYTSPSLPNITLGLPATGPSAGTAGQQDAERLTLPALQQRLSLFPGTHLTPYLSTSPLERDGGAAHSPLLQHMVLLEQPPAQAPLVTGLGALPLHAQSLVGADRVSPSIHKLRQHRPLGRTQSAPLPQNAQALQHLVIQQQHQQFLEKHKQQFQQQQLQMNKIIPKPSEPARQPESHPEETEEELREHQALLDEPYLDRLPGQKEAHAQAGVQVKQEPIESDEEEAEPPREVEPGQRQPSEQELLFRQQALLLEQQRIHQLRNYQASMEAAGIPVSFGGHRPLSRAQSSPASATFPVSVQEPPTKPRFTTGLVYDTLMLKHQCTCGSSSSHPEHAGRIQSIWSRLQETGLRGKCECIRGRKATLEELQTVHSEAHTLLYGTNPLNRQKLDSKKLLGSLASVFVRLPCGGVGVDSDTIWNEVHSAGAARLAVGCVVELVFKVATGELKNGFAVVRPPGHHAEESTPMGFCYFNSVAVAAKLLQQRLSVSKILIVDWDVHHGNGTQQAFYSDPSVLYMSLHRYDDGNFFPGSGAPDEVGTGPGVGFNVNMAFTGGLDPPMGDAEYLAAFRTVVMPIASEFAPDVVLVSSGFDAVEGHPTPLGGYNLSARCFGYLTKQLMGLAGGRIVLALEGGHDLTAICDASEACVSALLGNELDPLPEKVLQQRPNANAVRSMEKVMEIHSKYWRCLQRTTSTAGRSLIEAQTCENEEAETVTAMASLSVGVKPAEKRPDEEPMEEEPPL
T2 sequence (Q9UQL6 whole entry): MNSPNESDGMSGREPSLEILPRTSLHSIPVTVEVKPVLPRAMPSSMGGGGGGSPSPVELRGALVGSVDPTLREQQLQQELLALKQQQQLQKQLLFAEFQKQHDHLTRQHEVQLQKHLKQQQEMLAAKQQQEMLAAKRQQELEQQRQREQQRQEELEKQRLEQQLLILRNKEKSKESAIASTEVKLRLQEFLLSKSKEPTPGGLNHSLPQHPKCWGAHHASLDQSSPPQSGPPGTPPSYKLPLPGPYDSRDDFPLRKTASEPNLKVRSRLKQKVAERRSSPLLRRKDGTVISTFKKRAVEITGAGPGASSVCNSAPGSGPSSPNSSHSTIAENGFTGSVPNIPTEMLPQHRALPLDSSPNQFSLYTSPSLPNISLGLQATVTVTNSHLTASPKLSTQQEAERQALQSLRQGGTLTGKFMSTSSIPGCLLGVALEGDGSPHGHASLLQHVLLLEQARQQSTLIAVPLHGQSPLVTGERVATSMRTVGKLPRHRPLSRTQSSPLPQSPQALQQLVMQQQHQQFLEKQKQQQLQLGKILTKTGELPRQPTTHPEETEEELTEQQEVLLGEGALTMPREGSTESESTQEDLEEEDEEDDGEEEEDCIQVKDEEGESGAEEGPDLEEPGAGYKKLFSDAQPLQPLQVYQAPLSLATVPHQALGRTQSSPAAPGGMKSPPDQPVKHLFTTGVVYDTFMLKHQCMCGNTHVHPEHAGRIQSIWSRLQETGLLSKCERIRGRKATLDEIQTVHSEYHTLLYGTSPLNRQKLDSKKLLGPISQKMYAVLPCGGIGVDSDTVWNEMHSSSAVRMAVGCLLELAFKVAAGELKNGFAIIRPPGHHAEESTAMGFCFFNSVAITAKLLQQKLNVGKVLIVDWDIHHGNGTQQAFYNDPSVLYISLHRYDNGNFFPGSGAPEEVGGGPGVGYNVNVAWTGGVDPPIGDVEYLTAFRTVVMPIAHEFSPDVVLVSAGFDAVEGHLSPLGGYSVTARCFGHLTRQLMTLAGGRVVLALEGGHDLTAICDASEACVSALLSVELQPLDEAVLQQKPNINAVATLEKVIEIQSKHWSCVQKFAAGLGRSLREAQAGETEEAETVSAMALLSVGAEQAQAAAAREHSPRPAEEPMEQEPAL

For apelin, the MEF2 reporter activity [1] was “significant augmentation”, the “cytoplasmic translocation of HDAC5-GFP” value [2] was “robust cytoplasmic translocation” and the “cytoplasmic translocation of HDAC4-GFP” value [3] was “robust cytoplasmic translocation”. For the same compound, the “phosphorylation of HDAC5” value [4] was “marked increase in phosphorylation” and the “phosphorylation of HDAC4” value [5] was “marked increase in phosphorylation”.
In the case of `COc1cccc2c1c(O)c(C(=O)N(C)c1ccc(C(F)(F)F)cc1)c(=O)n2C` [Tasquinimod, 4-hydroxy-5-methoxy-N,1-dimethyl-2-oxo-N-[4-(trifluoromethyl)phenyl]-1,2-dihydroquinoline-3-carboxamide], the “right ventricular hypertrophy (right ventricle to left ventricle plus septum weight ratios)” value [6, 18] was “decreased” and the “right ventricular systolic pressures” value [6, 18] was “significantly reduced”.
In the case of `O=C(NCC1(c2nc(-c3ccccc3)cs2)CCOCC1)c1cccc(-c2noc(C(F)(F)F)n2)c1` [TMP269, N-((4-(4-phenylthiazol-2-yl)tetrahydro-2H-pyran-4-yl)methyl)-3-(5-(trifluoromethyl)-1,2,4-oxadiazol-3-yl)benzamide], the “expression of Cx37, Cx40, and KLF2” value [7] was “significantly increased”, the “right ventricular hypertrophy (right ventricle to left ventricle plus septum weight ratios)” value [6, 19] was “decreased” and the “right ventricular systolic pressures” value [6, 19] was “significantly reduced”. For the same compound, the “PAH PAEC migration” value [8] was “inhibited”, the “degradation of HDAC4” value [9] was “degradation” and the “degradation of HDAC5” value [10] was “degradation”.
In the case of `Cn1c(/C=C/C(=O)NO)ccc1/C=C/C(=O)c1cccc(F)c1` [MC1568, (E)-3-(5-((E)-3-(3-fluorophenyl)-3-oxoprop-1-en-1-yl)-1-methyl-1H-pyrrol-2-yl)-N-hydroxyacrylamide], the “selectivity for class IIa HDACs over other HDAC classes” value [11] is listed as “selective inhibition of class IIa HDACs, without affecting other HDAC classes”, the “expression of FGF2” value [12] is listed as “significant downregulation” and the “PAH PAEC proliferation” value [13] is listed as “significant reduction”. For the same compound, the “MEF2 transcriptional targets (Cx37, Cx40 and KLF2) expression” value [14] was “increased”, the “expression of Cx37, Cx40, and KLF2” value [7] was “significant increased expression” and the “myocardial fibrosis (trichrome staining of right ventricle, gross histology)” value ([6]; MCT and SUGEN groups, MC1568) was “no evidence of myocardial fibrosis”. The “muscularization of small arterioles” value [6, 20] was “significantly decreased”, the “right ventricle to left ventricle+septum weight ratios” value [6, 20] was “significant reduction” and the “right ventricular systolic pressures (RVSP)” value [6, 20] was “significant decrease”. For the same compound, the “PCNA-positive proliferating vascular cells” value ([6]; MCT and SUGEN models, lungs, MC1568 50 mg per kg intraperitoneal daily, vs. control groups) was “significantly fewer”, the “expression of FGF2 in the lungs” value [15] was “significantly decreased” and the “cellular apoptosis as assessed by caspase 3 cleavage” value [16] was “did not result in caspase activation”. For the same compound, the “PAH PAEC migration” value [8] was “significant reduction”, the “degradation of HDAC4” value [9] was “degradation” and the “degradation of HDAC5” value [10] was “degradation”.
For `CC(/C=C/C(=O)NO)=C\[C@@H](C)C(=O)c1ccc(N(C)C)cc1` [TSA, trichostatin A], the “cellular apoptosis as assessed by caspase 3 cleavage” value [16] is given as “marked induction of cellular apoptosis” and the “effect on the right ventricle” value [17] is given as “detrimental injury to the right ventricle”.
For `CCCC(CCC)C(=O)O` [valproic acid], the “effect on the right ventricle” value [17] is listed as “detrimental injury to the right ventricle”.
